Results from PubChem BioAssay AID2060510 (Molecular Pharmacology Branch, DTP, NCI, 2025).
Blank lines part the entries; values can stand above or below the compound they belong to.

System: 439559-082-T-J2-PDC spheroids viability
Assay: Anticancer human tumor 439559-082-T-J2-PDC patient-derived colon adenocarcinoma cell line growth inhibition [GQUAD]
Settings: for IC50: curve of first compound; for viability, T/C: stronger effect = lower value
Outline: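 Multi-cell-type spheroids of tumor cells with HUVEC and mesenchymal stem cells, treated with drug combinations. Concentrations descend in half-log steps from near clinical Cmax, or from 10 microM where Cmax is unknown; viability read-out.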

[1] = second compound 0.0316 µM, first compound 0.0316 µM
[2] = second compound 0.0316 µM, first compound 0.1 µM
[3] = second compound 0.0316 µM, first compound 0.316 µM
[4] = second compound 0.0316 µM, first compound 1 µM
[5] = second compound 0.0316 µM, first compound 3.16 µM
[6] = second compound 0.0316 µM, first compound 10 µM
[7] = second compound 0.1 µM, first compound 0.0316 µM
[8] = second compound 0.1 µM, first compound 0.1 µM
[9] = second compound 0.1 µM, first compound 0.316 µM
[10] = second compound 0.1 µM, first compound 1 µM
[11] = second compound 0.1 µM, first compound 3.16 µM
[12] = second compound 0.1 µM, first compound 10 µM
[13] = second compound 0.316 µM, first compound 0.0316 µM
[14] = second compound 0.316 µM, first compound 0.1 µM
[15] = second compound 0.316 µM, first compound 0.316 µM
[16] = second compound 0.316 µM, first compound 1 µM
[17] = second compound 0.316 µM, first compound 3.16 µM
[18] = second compound 0.316 µM, first compound 10 µM
[19] = second compound 1 µM, first compound 0.0316 µM
[20] = second compound 1 µM, first compound 0.1 µM
[21] = second compound 1 µM, first compound 0.316 µM
[22] = second compound 1 µM, first compound 1 µM
[23] = second compound 1 µM, first compound 3.16 µM
[24] = second compound 1 µM, first compound 10 µM
[25] = second compound 3.16 µM, first compound 0.0316 µM
[26] = second compound 3.16 µM, first compound 0.1 µM
[27] = second compound 3.16 µM, first compound 0.316 µM
[28] = second compound 3.16 µM, first compound 1 µM
[29] = second compound 3.16 µM, first compound 3.16 µM
[30] = second compound 3.16 µM, first compound 10 µM
[31] = second compound 10 µM, first compound 0.0316 µM
[32] = second compound 10 µM, first compound 0.1 µM
[33] = second compound 10 µM, first compound 0.316 µM
[34] = second compound 10 µM, first compound 1 µM
[35] = second compound 10 µM, first compound 3.16 µM
[36] = second compound 10 µM, first compound 10 µM
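Also: spheroids exposed to the agents for 7 days before readout.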
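For viability, T/C in this document: percent of luminescence signal in DMSO vehicle wells taken as 100% viability.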

SMILES: C=CCn1c(=O)c2cnc(Nc3ccc(N4CCN(C)CC4)cc3)nc2n1-c1cccc(C(C)(C)O)n1 + CN(C)c1ccc(Nc2c3ccc(NC(=O)CCN4CCCC4)cc3nc3cc(NC(=O)CCN4CCCC4)ccc23)cc1
- IC50 (second compound 0.0316 µM): 4.71 µM
- IC50 (second compound 0.1 µM): 3.41 µM
- IC50 (second compound 0.316 µM): 4.01 µM
- IC50 (second compound 1 µM): 3.54 µM
- IC50 (second compound 3.16 µM): 4.04 µM
- IC50 (second compound 10 µM): 3.41 µM
- viability, T/C [1]: 95%
- viability, T/C [2]: 89.5%
- viability, T/C [3]: 85.1%
- viability, T/C [4]: 82.1%
- viability, T/C [5]: 63.3%
- viability, T/C [6]: 24.8%
- viability, T/C [7]: 94.7%
- viability, T/C [8]: 97.9%
- viability, T/C [9]: 85%
- viability, T/C [10]: 69.4%
- viability, T/C [11]: 54.4%
- viability, T/C [12]: 20.9%
- viability, T/C [13]: 99.3%
- viability, T/C [14]: 101%
- viability, T/C [15]: 82.7%
- viability, T/C [16]: 81%
- viability, T/C [17]: 55.7%
- viability, T/C [18]: 24.5%
- viability, T/C [19]: 101%
- viability, T/C [20]: 96.7%
- viability, T/C [21]: 88.6%
- viability, T/C [22]: 74.9%
- viability, T/C [23]: 54.5%
- viability, T/C [24]: 18.2%
- viability, T/C [25]: 96.2%
- viability, T/C [26]: 97.8%
- viability, T/C [27]: 93.9%
- viability, T/C [28]: 89.3%
- viability, T/C [29]: 58.5%
- viability, T/C [30]: 18.2%
- viability, T/C [31]: 94.3%
- viability, T/C [32]: 90.9%
- viability, T/C [33]: 78.2%
- viability, T/C [34]: 76.2%
- viability, T/C [35]: 53.1%
- viability, T/C [36]: 13.3%

- IC50 (second compound 0.0316 µM): > 10 µM
- IC50 (second compound 0.1 µM): > 10 µM
- IC50 (second compound 0.316 µM): > 10 µM
- IC50 (second compound 1 µM): 6.35 µM
- IC50 (second compound 3.16 µM): 4.19 µM
- IC50 (second compound 10 µM): 9.8 µM
SMILES: COc1ccc([C@@H](O)c2cc(-c3ncnc4cc(N5CCOCC5)ccc34)c(F)cc2Cl)nn1 + Cc1cnc(CNC(=O)c2c(=O)c3ccc(N4CCCN(C)CC4)nc3n3c2sc2ccccc23)cn1
- viability, T/C [1]: 99.2%
- viability, T/C [2]: 95.8%
- viability, T/C [3]: 93.6%
- viability, T/C [4]: 89.9%
- viability, T/C [5]: 75.8%
- viability, T/C [6]: 59.8%
- viability, T/C [7]: 91.4%
- viability, T/C [8]: 84%
- viability, T/C [9]: 87.3%
- viability, T/C [10]: 71.2%
- viability, T/C [11]: 70.4%
- viability, T/C [12]: 59%
- viability, T/C [13]: 89.4%
- viability, T/C [14]: 79.1%
- viability, T/C [15]: 75.4%
- viability, T/C [16]: 68.9%
- viability, T/C [17]: 66.6%
- viability, T/C [18]: 50.3%
- viability, T/C [19]: 80.1%
- viability, T/C [20]: 66.6%
- viability, T/C [21]: 74.4%
- viability, T/C [22]: 64.8%
- viability, T/C [23]: 63.1%
- viability, T/C [24]: 42.7%
- viability, T/C [25]: 72%
- viability, T/C [26]: 62.7%
- viability, T/C [27]: 61.8%
- viability, T/C [28]: 59.3%
- viability, T/C [29]: 53.5%
- viability, T/C [30]: 43.2%
- viability, T/C [31]: 56.9%
- viability, T/C [32]: 65.4%
- viability, T/C [33]: 66.3%
- viability, T/C [34]: 52.3%
- viability, T/C [35]: 62.1%
- viability, T/C [36]: 41%

SMILES: CC1COCCN1c1cc(C2(S(C)(=N)=O)CC2)nc(-c2ccnc3[nH]ccc23)n1 (stereo unspecified) + CN(C)c1ccc(Nc2c3ccc(NC(=O)CCN4CCCC4)cc3nc3cc(NC(=O)CCN4CCCC4)ccc23)cc1
- IC50 (second compound 0.0316 µM): > 10 µM
- IC50 (second compound 0.1 µM): > 10 µM
- IC50 (second compound 0.316 µM): > 10 µM
- IC50 (second compound 1 µM): > 10 µM
- IC50 (second compound 3.16 µM): > 10 µM
- IC50 (second compound 10 µM): > 10 µM
- viability, T/C [1]: 93.8%
- viability, T/C [2]: 90%
- viability, T/C [3]: 92.4%
- viability, T/C [4]: 86.8%
- viability, T/C [5]: 89.7%
- viability, T/C [6]: 65%
- viability, T/C [7]: 97.1%
- viability, T/C [8]: 97.4%
- viability, T/C [9]: 89.9%
- viability, T/C [10]: 94.7%
- viability, T/C [11]: 79.9%
- viability, T/C [12]: 64.4%
- viability, T/C [13]: 93.3%
- viability, T/C [14]: 107%
- viability, T/C [15]: 97.8%
- viability, T/C [16]: 100%
- viability, T/C [17]: 93.4%
- viability, T/C [18]: 64.3%
- viability, T/C [19]: 100%
- viability, T/C [20]: 107%
- viability, T/C [21]: 102%
- viability, T/C [22]: 86.8%
- viability, T/C [23]: 84.5%
- viability, T/C [24]: 67.6%
- viability, T/C [25]: 105%
- viability, T/C [26]: 98.9%
- viability, T/C [27]: 104%
- viability, T/C [28]: 93.5%
- viability, T/C [29]: 88.6%
- viability, T/C [30]: 62.4%
- viability, T/C [31]: 97.3%
- viability, T/C [32]: 98.6%
- viability, T/C [33]: 115%
- viability, T/C [34]: 106%
- viability, T/C [35]: 81.8%
- viability, T/C [36]: 63.7%
